# Assay results reported in patent US12447198B2, “Peptides and fragments for treating diabetes and associated metabolic diseases” (Betavive Ltd., priority 2021, dated 2025).
# What was measured:
# [1] = Blood level of total and free IGF-2 after 40 μg intraperitoneal injection (ELISA); assay type: in vivo, mouse; conditions: 240 minute time frame
# Text: Without being bound by this theory, it is believed that IGF-2 binding proteins may initially inactivate the biological activity of free IGF-2. And over time, the bond between IGF-2 and the binding protein may be released, increasing the bioavailability of IGF-2 and leading to a longer term effective treatment.
# [2] = system: β-MIN6 cells; assay: Cell count (cell proliferation) of β-MIN6 cells; assay type: cell-based, mouse; conditions: 5 nM, 20 nM, 80 nM, 1 week treatment
# Text: β-MIN6 cells serve as an in vitro model of mouse pancreatic islets. β-MIN6 cells were used as an in vitro model to measure the effects of treatment with IGF-2.
# [3] = system: NOD mice; assay: Islet cell staining for glucagon and insulin in NOD mice; assay type: in vivo, mouse; conditions: NOD mice treated with IGF-2 for 13 weeks
# [4] = system: STZ-treated mice; assay: Pancreas histology and insulin immunohistochemical staining of islets; assay type: in vivo, mouse
# Experimental: FIG. 21 depicts pancreas histology results on STZ-treated mice. […] The non-control mice were treated once a day for 10 days with a 3000 μg/kg dose of IGF-2. The mice were sacrificed on day 35 and pancreas cells were assessed as being insulin positive or negative.
# [5] = system: human pancreatic islet cells; assay: Insulin secretion of human pancreatic islet cells in response to a glucose pulse; assay type: cell-based; conditions: 50 nM for four days
# [6] = system: STZ-treated mice; assay: Serum insulin and c-peptide levels four weeks after IGF-2 treatment; assay type: in vivo, mouse; conditions: four weeks post treatment
# Experimental: Fasting blood glucose levels (mg/dL) were determined using the Accu-Chek Performa glucometer (Roche Diagnostics, Mannheim, Germany). After approximately two weeks of stable hyperglycemia, C57BL/6 STZ mice received exogenous injections of recombinant human IGF-2 (0.3-12 mg/kg/day injection) intraperitoneally for 5-10 consecutive days. During post-treatment follow-up period and upon termination, mice were tested for: fasting glucose, body weight, glucose tolerance test (IPGTT), serum C-peptide level, serum insulin level, and full blood and histological analysis (CBC, Chemistry, Insulin IHC and H&E).
# C-peptide is a biomarker used to assess pancreatic beta cell function and is normally produced in equimolar amounts to endogenous insulin. Leighton et al., A Practical Review of C-Peptide Testing in Diabetes, Diabetes Ther. 2017 June; 8 (3): 475-487.
# [7] = system: STZ-treated mouse islets; assay: Insulin secretion from STZ-treated mouse islets; assay type: cell-based; conditions: islets treated with 2.5 mM STZ; 48 hours after treatment; IGF-2 50 nM and 500 nM, GLP-1 100 nM and 1000 nM
# Experimental: Mouse islet cells were treated with 2.5 mM STZ and subsequently treated with either IGF-2 (FA) at 50 nM and 500 nM, or with GLP-1 at 100 nM and 1000 nM.
# [8] = system: db/db mice; assay: 14 hour fasting blood glucose in db/db mice treated with IGF-2; assay type: in vivo, mouse
# Experimental: db/db mice are bred to have a leptin deficiency, increasing susceptibility of the mice to obesity, insulin resistance, and type 2 diabetes (T2D).
# In this experiment, one group of db/db mice was injected with 3000 μg/kg/day of IGF-2 for 68 days, a second group of db/db mice was injected with 12000 μg/kg/day of IGF-2 for 66 days, and a third group of db/db mice was injected with saline once a day for 68 days.
# In one experiment (left panel), one group of db/db mice was injected with a daily dose of 12000 μg/kg of IGF-2 divided in two injections per day for 70 days, while another group of db/db mice was injected with saline. […] In another experiment (right panel), one group of db/db mice was injected with a daily dose of 12000 μg/kg of IGF-2 divided in two injections per day for 35 days, while another group of db/db mice was injected with saline.
# In one exemplary experiment, db/db mice were treated with a 12,000 μg/kg daily dose for 70 days with 70 days of follow up (during which IGF-2 was not administered). All the treated mice maintained normoglycemia for at least 50 days following treatment. In another exemplary experiment, db/db mice were treated with a 12,000 μg/kg daily dose for 35 days with 35 days of follow up (during which IGF-2 was not administered). All the treated mice maintained normoglycemia for 35 days following treatment.
# [9] = system: STZ-treated mouse islets; assay: MTT viability of STZ-treated mouse islets; assay type: cell-based; conditions: increasing concentrations
# Text: Yellow dye MTT is converted to a purple dye by mitochondrial reductase in viable cells. Therefore, the amount of purple dye present determined by measuring optical density of cells at 570 nm serves as a measurement of cell viability.
# [10] = system: db/db mice; assay: Serum insulin in db/db mice after long-term IGF-2 treatment; assay type: in vivo, mouse; conditions: 12,000 μg/kg daily dose for 68 days, measured 6.5 weeks after the end of treatment
# Experimental: In this experiment, one group of db/db mice (labeled FA X1) was injected with 3000 μg/kg of IGF-2 once a day for 68 days, a second group of db/db mice (labeled FA X4) was injected with a daily dose of 12000 μg/kg of IGF-2 divided in two injections per day for 68 days, and a third group of db/db mice was injected with saline. Serum insulin levels were measured 6.5 weeks after the end of the 68 day treatment. Treatment with the 12,000 μg/kg daily dose increased serum insulin levels by about 50% with respect to the control.
# [11] = Safety/toxicity: pathology of blood samples and tissue samples from thirty organs; assay type: in vivo; conditions: end of 10 days of treatment, 24 days after termination, and 100 days after termination of 30 days of treatment
# [12] = system: STZ-treated mice; assay: Short term effects of a single IGF-2 injection on glucose and IGF-2 levels, 240 minute time course; assay type: in vivo, mouse
# Experimental: More specifically, the top panel illustrates the drop in glucose blood levels in three STZ-treated mice after receiving a 800 μg/kg/day dose of IGF-2 over a 240 minute time course. […] IGF-2 is part of a complex system comprising IGF-1 and IGF-2 along with binding proteins, proteases and other interacting molecules. […] Normoglycemia is maintained while total serum IGF-2 is reduced to very low levels. […] Without being bound by this theory, it is believed that a slow release of IGF-2 from a serum complex can maintain normal blood glucose levels.
substance,measurement,setting,value
insulin-like growth factor 2 [IGF-2],peak free IGF-2 in the blood,[1],1 µg
same,peak total concentration of IGF-2 total in the blood,[1],about 16 μg
same,cell count (cell proliferation),[2],increases cell proliferation in a dose-dependent manner
same,"islet cells, histological staining for glucagon and insulin",[3],fully functional islet cells
same,number of functional beta cells,"[4]; 3000 μg/kg once a day for 10 days, sacrificed on day 35, permanently cured mice",almost four fold increase
same,number of cells that test positive for insulin,"[4]; 3000 μg/kg once a day for 10 days, sacrificed on day 35, permanently cured vs non-permanently cured and saline control",significant increase
same,level of insulin in pancreas islets as compared to a naïve mouse (immunohistochemical staining),[4]; non-permanently cured mouse,lower level of insulin in its pancreas islets
same,level of insulin in pancreas islets as compared to a naïve mouse (immunohistochemical staining),[4]; permanently cured mouse,higher level of insulin in its pancreas islets
same,increase of insulin secretion in response to a glucose pulse compared to untreated cells,[5],~50%
same,increase in c-peptide levels,[6]; four STZ-treated mice,12 fold
same,increase of serum insulin compared to STZ treated control mice,[6]; permanently cured mice,50%
same,insulin secretion,[7],increased in a dose dependent manner
same,time following treatment for which all the treated mice maintained normoglycemia,"[8]; 12,000 μg/kg daily dose for 35 days, 35 days of follow up",35 days
same,time following treatment for which all the treated mice maintained normoglycemia,"[8]; 12,000 μg/kg daily dose for 70 days, 70 days of follow up",at least 50 days
same,14 hour fasting blood glucose levels,"[8]; FIG. 25 left panel, 12000 μg/kg daily in two injections per day for 70 days",reduced blood glucose levels (14 hour fasting blood glucose levels) to a normal range
same,14 hour fasting blood glucose levels,"[8]; FIG. 25 right panel, 12000 μg/kg daily in two injections per day for 35 days",reduced blood glucose levels (14 hour fasting blood glucose levels) to a normal range
same,14 hour fasting blood glucose levels,"[8]; first group of db/db mice (FIG. 23), 3000 μg/kg/day for 68 days",reduced blood glucose levels (14 hour fasting blood glucose levels) to a normal range
same,14 hour fasting blood glucose levels,"[8]; first group of db/db mice (FIG. 23), 12000 μg/kg/day for 66 days",reduced blood glucose levels (14 hour fasting blood glucose levels) to a normal range
same,14 hour fasting blood glucose levels,"[8]; second group of db/db mice (FIG. 24), 12,000 μg/kg/day, 68 day treatment period",reduced blood glucose levels (14 hour fasting blood glucose levels) to a normal range
same,"mouse islet viability (MTT, optical density at 570 nm)",[9],increased in a dose dependent manner
same,increase of serum insulin levels with respect to the control,[10],about 50%
same,pathologies related to treatment in blood samples and tissue samples from thirty organs,[11],No pathologies were identified
same,free IGF-2 levels relative to total IGF-2,"[12]; 800 μg/kg dose, 240 minute time course",a small fraction of the total IGF-2 concentration
same,period for which the normal blood glucose level lasts,[12]; single 800 μg/kg dose intraperitoneally,over four hours
same,blood glucose level reached (normal level),"[12]; single 800 μg/kg dose intraperitoneally, from hyperglycemic levels of 300-500 mg/dl",100 to 200 mg/dL
